From US11873298B2, “Compounds and uses thereof” (JANSSEN PHARMACEUTICA NV, priority 2017, dated 2024)
“And” between values parts separate entries of the source, which are not always exact repeats. Equal values may be shown once.

Key:
Assay type in all cases: cell-based
SCD5 = target: T1, SCD5 (Homo sapiens, UniProt Q86SK9); experiment: Growth inhibition of humanized yeast strain expressing SCD5 as sole desaturase; conditions: humanized yeast strain expressing SCD5
T1 construct: host or cells: S. cerevisiae ole1Δ strain (W303 pdr1Δ pdr3Δ background), plasmid pRS316 with TDH3 promoter and CYC1 terminator
T1 sequence (Q86SK9 1-330): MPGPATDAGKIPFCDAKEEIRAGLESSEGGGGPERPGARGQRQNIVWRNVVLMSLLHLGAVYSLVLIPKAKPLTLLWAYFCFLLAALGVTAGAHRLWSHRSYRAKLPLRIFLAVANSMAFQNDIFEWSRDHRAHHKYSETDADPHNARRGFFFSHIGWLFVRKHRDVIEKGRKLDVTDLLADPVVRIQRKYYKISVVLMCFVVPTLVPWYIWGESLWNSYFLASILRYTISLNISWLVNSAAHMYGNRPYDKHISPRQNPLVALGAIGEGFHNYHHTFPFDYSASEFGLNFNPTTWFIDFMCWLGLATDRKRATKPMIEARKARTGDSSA
Method in brief: (§1)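 Plasmid-complemented ole1Δ yeast, drug-pump deleted (pdr1Δ pdr3Δ), depend solely on the introduced Ole1, SCD1 or SCD5 desaturase. Compounds are added from DMSO to cells in uracil-free galactose medium, 2× density 0.02, and OD600 is read after 24 h or 40 h respectively.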

Ole1 = target: T2, Ole1 (Saccharomyces cerevisiae, UniProt P21147); experiment: Growth inhibition of yeast strain expressing Ole1 as sole desaturase; conditions: yeast strain expressing Ole1 as sole desaturase
T2 construct: expressed in transfected cells; host or cells: S. cerevisiae ole1Δ strain (W303 pdr1Δ pdr3Δ background), plasmid pRS316 with TDH3 promoter and CYC1 terminator
T2 sequence (P21147 1-510): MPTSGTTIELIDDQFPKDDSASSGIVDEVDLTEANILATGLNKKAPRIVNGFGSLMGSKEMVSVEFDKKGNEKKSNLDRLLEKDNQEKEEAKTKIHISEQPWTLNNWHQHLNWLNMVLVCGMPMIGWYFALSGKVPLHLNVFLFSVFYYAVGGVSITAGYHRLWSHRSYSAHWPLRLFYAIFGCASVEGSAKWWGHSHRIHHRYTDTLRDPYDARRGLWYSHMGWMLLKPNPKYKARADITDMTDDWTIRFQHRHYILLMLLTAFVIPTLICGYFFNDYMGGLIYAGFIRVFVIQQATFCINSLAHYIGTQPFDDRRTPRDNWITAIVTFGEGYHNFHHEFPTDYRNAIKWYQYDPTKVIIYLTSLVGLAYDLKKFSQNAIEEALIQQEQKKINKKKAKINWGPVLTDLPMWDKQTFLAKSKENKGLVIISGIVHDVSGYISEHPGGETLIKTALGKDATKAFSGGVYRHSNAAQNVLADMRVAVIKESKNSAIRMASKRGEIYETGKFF
Procedure: Strain oleΔ (yeast ole1 deletion mutant) was constructed by deleting OLE1 with NAT-MX6 in BY4741, amplifying the deletion cassette from the genomic DNA of the resulting strain with primers flanking the ORF by 1000 bp upstream and downstream, transforming the resulting deletion cassette into W303 pdr1Δ pdr3Δ, and plating transformants on YPD media containing G418 (200 μg/mL) and nourseothricin ([…]) with 0.01% TWEEN®-20 and 0.5 mM oleic and palmitoleic acids.
The coding sequence of yeast OLE1 was also cloned into this plasmid). These clones were then transformed into the ole1Δ strain and plated on CSM-Ura media (CSM lacking uracil) with 2% glucose (w/v) and independent colonies were isolated and amplified.
All compound profiling experiments were performed using the same basic protocol. Different genetic backgrounds (e.g., gene deletions) or conditions (e.g., addition of oleic and palmitoleic acid) were replaced as indicated below.
Yeast were cultured using standard techniques in complete synthetic media (CSM) and yeast nitrogen base supplemented with 2% (w/v) carbon source (glucose, raffinose, or galactose) to regulate the expression of the toxic disease protein. An initial starter culture was inoculated in 3 mL CSM-Glucose media and incubated overnight in a 30° C. shaker incubator (225 rpm). Saturated morning cultures were then diluted 1:20 in fresh CSM-Raffinose media and grown for 6 h to an OD600 (optical density) of ˜0.4-0.8 at 30° C. with shaking.
Compound administration was performed in two separate steps. First, 15 μL of CSM-Galactose (induces expression of toxic protein) was dispensed into clear 384 well assay plates using a MULTIDROP™ Combi reagent dispenser. […] The cultures described above were then diluted to a 2× concentration (0.03 and 0.08 for alpha-synuclein and ApoE, final ODsoo of 0.015 and 0.04) in CSM-Galactose. For wild-type and Ole1/SCD1/SCD5 plasmid-containing strains, the 2× cell density was 0.02. […] For 96-well assays (FIGS. 1A and 1B), compound dilutions in DMSO were generated in 96 well plates and 1 μL was manually pipetted into 96 well clear bottom assay plates.
For experiments using a plasmid-borne copy of Ole1, SCD1, or SCD5 (FIGS. 3B, 6, and 7), media lacking uracil (SX-Ura, where X is glucose, raffinose, or galactose), was used for all steps of the compound profiling protocol to ensure its maintenance throughout the assay.
After yeast delivery, assay plates were incubated under humidified conditions at 30° C. for 24 to 40 h. ApoE4 rescue experiments were stopped at 24 h, aSyn experiments at 40 h, Ole1 at 24 h, and SCD1/SCD5 at 40 h. The growth of yeast was monitored by reading the ODsoo of each well using a microplate reader (Perkin Elmer EnVision™).

SCD1 = target: T3, SCD1 (Homo sapiens, UniProt O00767); experiment: Growth inhibition of humanized yeast strain expressing SCD1 as sole desaturase; conditions: humanized yeast strain expressing SCD1
T3 construct: host or cells: S. cerevisiae ole1Δ strain (W303 pdr1Δ pdr3Δ background), plasmid pRS316 with TDH3 promoter and CYC1 terminator
T3 sequence (O00767 1-359): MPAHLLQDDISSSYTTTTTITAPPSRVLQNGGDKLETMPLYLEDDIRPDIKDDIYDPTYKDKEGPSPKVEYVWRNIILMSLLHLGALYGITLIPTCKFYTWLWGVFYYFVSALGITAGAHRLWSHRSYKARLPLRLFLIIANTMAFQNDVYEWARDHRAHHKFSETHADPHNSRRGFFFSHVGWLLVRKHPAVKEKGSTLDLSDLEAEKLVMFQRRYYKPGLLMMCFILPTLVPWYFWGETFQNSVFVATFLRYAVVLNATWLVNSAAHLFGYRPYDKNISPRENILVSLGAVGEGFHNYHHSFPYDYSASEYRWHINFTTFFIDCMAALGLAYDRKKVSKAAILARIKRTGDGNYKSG
Method in brief: as §1

Row | Structure (SMILES) | IC50 (SCD5) [µM] | SCD5 % Max Inhibition (SCD5) | IC50 (Ole1) [µM] | OLE1 % Max Inhibition (Ole1) | IC50 (SCD1) [µM] | SCD1 % Max Inhibition (SCD1)
1 | CCOc1cc(-c2noc(C3CCN(C(=O)CNC(=O)c4ccccc4)CC3)n2)ccc1OC [Compound 199] | > 45 | 3.87% | > 45 | 24.34% | > 45 | 27.85%
2 | Cc1nn(C)c2cc(-c3noc(C4CCN(C(=O)C5CC(=O)N(CC6COC6)C5)CC4)n3)ccc12 (stereo not drawn) [Compound 255] | 30 | 64.50% | > 45 | 96.25% | > 45 | 72.70%
3 | COc1ccc(-c2noc(C3CCN(C(=O)C4CC(=O)N(c5cccc(C#N)c5)C4)CC3)n2)cc1OC(C)C (stereo not drawn) [Compound 296] | > 45 | 22.6% | > 45 | 99.1% | > 45 | 86.6%
4 | N#Cc1cccc(N2CC(C(=O)N3CCC(c4nc(N5CC6(COC6)C5)no4)CC3)CC2=O)c1 (stereo not drawn) [Compound 332] | > 45 | 31.5% | > 45 | 77.0% | > 45 | 59.7%
5 | Cc1nn(C)c2cc(-c3noc(C4CCN(C(=O)C5CC(=O)N(c6ccccn6)C5)CC4)n3)ccc12 (stereo not drawn) [Compound 195] | > 45 | 9.78% | > 45 | 3.86% | > 45 | 75.08%
6 | Cc1nn(C)c2cc(-c3noc(C4CCN(C(=O)N[C@@H]5C[C@@H]5c5ccccc5)CC4)n3)ccc12 [Compound 329] | > 45 | 13.4% | > 45 | 12.5% | – | 16.2%
7 | COc1ccc(-c2noc(C3CCN(C(=O)c4cccc(C(C)C)c4)CC3)n2)cc1OC [Compound 167] | > 45 | 2.38% | 38.4 | 57.28% | > 45 | 6.11%
8 | O=C(CN1Cc2ccccc2C1=O)N1CCC(c2nc(-c3ccc4nonc4c3)no2)CC1 [Compound 182] | > 45 | 79.82% | > 45 | 124.27% | > 45 | 113.27%
9 | Cn1c(=O)n(C)c2cc(-c3noc(C4CCN(C(=O)[C@@H](CO)NC(=O)c5ccccc5)CC4)n3)ccc21 [Compound 214] | > 45 | 74.58% | > 45 | 15.08% | – | 65.73%
10 | Cc1nn(C)c2cc(-c3noc(C4CCN(C(=O)CNC(=O)c5cccnc5)CC4)n3)ccc12 [Compound 197] | > 45 | 61.44% | > 45 | 4.80% | > 45 | 66.87%
11 | Cc1nn(C)c2cc(-c3noc(C4CCN(C(=O)CNC(=O)c5ccsc5)CC4)n3)ccc12 [Compound 222] | > 45 | 1.92% | > 45 | 3.59% | > 45 | 40.42%
12 | COc1cc(-c2noc(C3CCN(C(=O)CNC(=O)c4ccccc4)CC3)n2)ccc1OC(F)(F)F [Compound 253] | > 45 | 63.11% | > 45 | 106.42% | – | 62.07%
13 | CC(C)c1ccc(C(=O)N2CCC(c3nc(N4CC5(COC5)C4)no3)CC2)cc1 [Compound 337] | > 45 | 61.6% | > 45 | 86.4% | – | 49.6%
14 | CC(C)(C#N)C1CN(c2noc(C3CCN(C(=O)C4CC(=O)N(c5ccccc5)C4)CC3)n2)C1 (stereo not drawn) [Compound 254] | > 45 | 83.13% | > 45 | 92.77% | > 45 | 69.80%
15 | Cn1c(=O)n(C)c2cc(-c3noc(C4CCN(C(=O)[C@H]5CC(=O)N(c6ccccn6)C5)CC4)n3)ccc21 [Compound 256] | > 45 | 72.11% | > 45 | 4.16% | – | 76.04%
16 | Cc1nn(C)c2cc(-c3noc(C4CCN(C(=O)[C@@H]5CC(=O)N(c6cccc(C#N)c6)C5)CC4)n3)ccc12 [Compound 306] | > 45 | – | > 45 | 33.2% and 36.88% | ≥ 45 | 67.6% and 63.32%
17 | Cc1nn(C)c2cc(-c3noc(C4CCN(C(=O)CNC(=O)c5cccc(C#N)c5)CC4)n3)ccc12 [Compound 268] | > 45 | 8.68% and 2.67% | > 45 | 4.39% and 0.14% | ≥ 45 | 79.03% and 65%
18 | Cc1nn(C)c2cc(-c3noc(C4CCN(C(=O)C5CC(=O)N(c6ccc(F)cc6)C5)CC4)n3)ccc12 (stereo not drawn) [Compound 188] | > 45 | 4.51% | > 45 | 4.70% | > 45 | 78.63%
19 | C[C@H]1CN(c2noc(C3CCN(C(=O)C4CC(=O)N(c5cccc(Cl)c5)C4)CC3)n2)C[C@H](C)O1 (stereo partly drawn) [Compound 324] | > 45 | 68.7% | > 45 | 90.5% | > 45 | 74.9%
20 | O=C(C1CC(=O)N(c2cccc(Cl)c2)C1)N1CCC(c2nc(Cl)no2)CC1 (stereo not drawn) [Compound 348] | – | 59.2% | > 45 | 74.78% | – | –
